Legend:
Assay in all cases: relative viability (nuclei count vs DMSO), 5 days (fraction); higher = more cells survive
XMD13-2 + Tozasertib = compound: C1CC1C(=O)NC2=NNC3=C2C=CC(=C3)C4=CC(=CC=C4)C(=O)NC5CC5 [XMD13-2] + Cc1cc(Nc2cc(N3CCN(C)CC3)nc(Sc3ccc(NC(=O)C4CC4)cc3)n2)n[nH]1 [Tozasertib] (partner 0.1 µM)
How it was run: (§1)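 Lung cancer cell lines in 1536-well plates were dosed by pin tool the day after seeding, either with one drug alone or with a fixed anchor-drug dose plus five library-drug doses (not always all listed) in √10 steps. After 5 days, cells were fixed and their nuclei stained in one step (final 0.05% Triton X-100, 1% formaldehyde, 1 ug/ml Hoechst), then counted on 4× images. Relative viability is the nuclei count in treated wells divided by that in vehicle wells. Values are medians of duplicate plates.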

ALW-II-49-7 + OSI-027 = compound: Cc1ccc(C(=O)Nc2cccc(C(F)(F)F)c2)cc1Nc1cncc(C(N)=O)c1 [ALW-II-49-7] + COc1cccc2cc(-c3nc([C@H]4CC[C@H](C(=O)O)CC4)n4ncnc(N)c34)[nH]c12 [OSI-027] (partner 0.5 µM)
How it was run: as §1

Dasatinib + AZD7762 = compound: Cc1nc(Nc2ncc(C(=O)Nc3c(C)cccc3Cl)s2)cc(N2CCN(CCO)CC2)n1 [Dasatinib] + NC(=O)Nc1cc(-c2cccc(F)c2)sc1C(=O)N[C@H]1CCCNC1 [AZD7762] (partner 0.2 µM)
How it was run: as §1

XMD13-2 + Navitoclax = compound: C1CC1C(=O)NC2=NNC3=C2C=CC(=C3)C4=CC(=CC=C4)C(=O)NC5CC5 [XMD13-2] + CC1(C)CCC(c2ccc(Cl)cc2)=C(CN2CCN(c3ccc(C(=O)NS(=O)(=O)c4ccc(N[C@H](CCN5CCOCC5)CSc5ccccc5)c(S(=O)(=O)C(F)(F)F)c4)cc3)CC2)C1 [Navitoclax] (partner 0.5 µM)
How it was run: as §1

Row | Cell Line | relative viability (XMD13-2 + Tozasertib; first compound 0.05 µM) | relative viability (XMD13-2 + Tozasertib; first compound 0.1581 µM) | relative viability (XMD13-2 + Tozasertib; first compound 0.5 µM) | relative viability (XMD13-2 + Tozasertib; first compound 1.581 µM) | relative viability (XMD13-2 + Tozasertib; first compound 5 µM) | relative viability (ALW-II-49-7 + OSI-027; first compound 0.08 µM) | relative viability (ALW-II-49-7 + OSI-027; first compound 0.253 µM) | relative viability (ALW-II-49-7 + OSI-027; first compound 0.8 µM) | relative viability (ALW-II-49-7 + OSI-027; first compound 2.53 µM) | relative viability (ALW-II-49-7 + OSI-027; first compound 8 µM) | relative viability (Dasatinib + AZD7762; first compound 0.005 µM) | relative viability (Dasatinib + AZD7762; first compound 0.01581 µM) | relative viability (Dasatinib + AZD7762; first compound 0.05 µM) | relative viability (Dasatinib + AZD7762; first compound 0.1581 µM) | relative viability (Dasatinib + AZD7762; first compound 0.5 µM) | relative viability (XMD13-2 + Navitoclax; first compound 0.05 µM) | relative viability (XMD13-2 + Navitoclax; first compound 0.1581 µM) | relative viability (XMD13-2 + Navitoclax; first compound 0.5 µM) | relative viability (XMD13-2 + Navitoclax; first compound 1.581 µM) | relative viability (XMD13-2 + Navitoclax; first compound 5 µM)
1 | HCC-366 | 0.0882 | 0.0936 | 0.127 | 0.115 | 0.116 | 0.977 | 1.17 | 0.731 | 0.985 | 0.627 | 0.234 | 0.248 | 0.143 | 0.159 | 0.0931 | 1.12 | 1.07 | 1.13 | 1.06 | 1.19
2 | IA-LM |  |  |  |  |  |  |  |  |  |  |  |  |  |  |  | 0.821 | 0.867 | 0.724 | 0.769 | 0.457
3 | LCLC-103H | 0.542 | 0.326 | 0.492 | 0.545 | 0.416 | 0.43 | 0.462 | 0.474 | 0.463 | 0.377 | 0.695 | 0.666 | 0.628 | 0.523 | 0.331 |  |  |  |  | 
4 | NCI-H358 | 0.126 | 0.121 | 0.102 | 0.114 | 0.0991 | 0.722 | 0.788 | 0.628 | 0.756 | 0.611 | 0.538 | 0.455 | 0.364 | 0.241 | 0.244 |  |  |  |  | 
5 | NCI-H520 | 0.495 | 0.491 | 0.515 | 0.395 | 0.462 | 0.258 | 0.249 | 0.25 | 0.242 | 0.262 |  |  |  |  |  | 1.17 | 1.2 | 1.08 | 1.01 | 0.501
6 | NCI-H522 | 0.531 | 0.651 | 0.593 | 0.483 | 0.412 | 0.795 | 0.753 | 0.634 | 0.718 | 0.749 | 0.857 | 0.73 | 0.882 | 0.654 | 0.634 |  |  |  |  | 
7 | NCI-H650 | 0.783 | 0.748 | 0.781 | 0.716 | 0.723 | 0.519 | 0.509 | 0.511 | 0.419 | 0.391 | 0.75 | 0.896 | 1.01 | 0.606 | 0.4 |  |  |  |  | 
8 | NCI-H661 | 0.335 | 0.307 | 0.33 | 0.36 | 0.427 | 0.552 | 0.773 | 0.781 | 0.78 | 0.452 |  |  |  |  |  |  |  |  |  | 
9 | NCI-H1299 |  |  |  |  |  |  |  |  |  |  |  |  |  |  |  | 1.04 | 1.03 | 1.06 | 1.03 | 1.09
10 | NCI-H1563 |  |  |  |  |  | 0.717 | 0.71 | 0.731 | 0.782 | 0.679 |  |  |  |  |  |  |  |  |  | 
11 | NCI-H1623 | 0.5 | 0.456 | 0.437 | 0.42 | 0.483 | 0.416 | 0.408 | 0.371 | 0.351 | 0.357 |  |  |  |  |  |  |  |  |  | 
12 | NCI-H1648 | 0.5 | 0.314 | 0.608 | 0.51 | 0.342 | 0.254 | 0.264 | 0.264 | 0.255 | 0.215 | 0.677 | 0.725 | 0.724 | 0.369 | 0.254 |  |  |  |  | 
13 | NCI-H1650 | 0.439 | 0.36 | 0.471 | 0.381 | 0.588 | 0.444 | 0.412 | 0.451 | 0.631 | 0.687 |  |  |  |  |  | 1.07 | 1.05 | 0.993 | 1.33 | 1.52
14 | NCI-H1703 |  |  |  |  |  |  |  |  |  |  | 0.128 | 0.121 | 0.139 | 0.116 | 0.13 | 1.59 | 1.19 | 1.24 | 0.889 | 1.16
15 | NCI-H1792 |  |  |  |  |  | 0.805 | 0.774 | 0.609 | 0.149 | 0.376 | 0.62 | 0.532 | 0.489 | 0.19 | 0.0904 | 0.746 | 0.591 | 0.715 | 0.491 | 0.886
16 | NCI-H2009 | 0.849 | 0.7 | 0.798 | 0.728 | 0.749 | 0.615 | 0.67 | 0.532 | 0.408 | 0.406 |  |  |  |  |  | 1.22 | 1.15 | 1.22 | 1.14 | 1.21
17 | NCI-H2023 | 0.524 | 0.34 | 0.372 | 0.281 | 0.309 | 0.379 | 0.44 | 0.37 | 0.354 | 0.3 |  |  |  |  |  | 1.01 | 1.03 | 0.893 | 0.968 | 1
18 | NCI-H2228 | 0.267 | 0.32 | 0.273 | 0.209 | 0.237 | 0.502 | 0.269 | 0.496 | 0.59 | 0.471 |  |  |  |  |  | 1.15 | 0.949 | 0.643 | 0.668 | 0.841
19 | NCI-H2342 | 0.547 | 0.421 | 0.525 | 0.603 | 0.575 | 0.532 | 0.535 | 0.602 | 0.592 | 0.562 | 0.469 | 0.384 | 0.383 | 0.341 | 0.315 |  |  |  |  | 
20 | SK-LU-1 | 0.335 | 0.338 | 0.432 | 0.309 | 0.323 | 0.269 | 0.345 | 0.313 | 0.289 | 0.252 |  |  |  |  |  | 0.915 | 0.832 | 0.664 | 0.803 | 0.82
21 | SK-MES-1 | 0.998 | 0.879 | 0.919 | 0.804 | 0.72 | 0.588 | 0.547 | 0.578 | 0.456 | 0.331 |  |  |  |  |  | 1.26 | 1.32 | 1.21 | 1.24 | 1.2
22 | SW 900 | 0.62 | 0.573 | 0.506 | 0.473 | 0.533 | 0.426 | 0.642 | 0.555 | 0.445 | 0.347 | 0.592 | 0.534 | 0.371 | 0.36 | 0.147 |  |  |  |  | 
23 | SW 1573 | 0.196 | 0.167 | 0.155 | 0.145 | 0.354 | 0.683 | 0.653 | 0.524 | 0.656 | 0.505 |  |  |  |  |  | 1.54 | 1.27 | 0.94 | 0.876 | 0.88

From the supplement of paper PMC10307832
